This note sets out measurements from patent US20220088010A1, “Co-Administration of inhibitors to produce insulin producing gut cells” (The Trustees of Columbia University in the City of New York, priority 2019, published 2022).

Entries after “also recorded” stand apart in the source; their conditions may differ.

In assay [1] the test system is intestine enteroendocrine cells of Foxo1 heterozygous knockouts. Put plainly: Co-treatment: DBZ with first dose of FBT9, then FBT9 3 days TID; intestine immunohistochemistry. It counts as in vivo, mouse. The following applies: DBZ alone or FBT9 x3 days TID alone (FIG. 9). The procedure:
FIG. 8 provides graphs showing the effect of co-treatment of FBT9 and DBZ (DBZ administered in conjunction with first dose of FBT9 followed by sequential administration of FBT9 3 days TID) on body weight and plasma glucose in Foxo1 heterozygous knockouts.
The experiment consisted of performing surgery on 8-week-old mice to implant an enterojejujnal catheter to deliver drugs locally to the intestinal mucosa. After a 1-week recovery period, mice were treated with a single i.p. injection of DBZ or vehicle control.
(§1) was initiated either on the same day or on the following day, t.i.d. by injection via enterojejunal catheter for 3 days. At the end of the experiment, mice were sacrificed and the intestine analyzed for enteroendocrine cell content using immunohistochemistry. […] The treatment regime of FIG. 10 involved administering the first dose of FBT9 with DBZ followed by subsequent doses of FBT9.

The test system of assay [2] is intestine enteroendocrine cells. Put plainly: Initial DBZ i.p. followed by FBT9 via enterojejunal catheter (24 hrs after DBZ); intestine analyzed for enteroendocrine cell content by immunohistochemistry. It is filed as in vivo, mouse. The following applies: FBT9 from 24 hrs later. The procedure:
The experiment consisted of performing surgery on 8-week-old mice to implant an enterojejujnal catheter to deliver drugs locally to the intestinal mucosa. After a 1-week recovery period, mice were treated with a single i.p. injection of DBZ or vehicle control. Administration of Foxo1 inhibitor compound 9 (Langlet et al. 2017 Cell, see below)
as §1

The test system of assay [3] is Mouse gut organoid from a wild type mouse. Put plainly: FBT10 treatment of mouse gut organoid, immunohistochemistry. It counts as cell-based. The following applies: after 72 hrs of treatment; FIG. 18. The procedure:
Mouse gut organoid from a wild type mouse was treated with FBT10 (Compound 10, Langlet et al. 2017 Cell, see below).

In assay [4] the test system is intestine enteroendocrine cells. Description: Co-administration of FBT10 (enterojejunal catheter) and DBZ (i.p.) in mice; intestine immunohistochemistry. It counts as in vivo, mouse. The following applies: FBT10 t.i.d. 3 days with single i.p. DBZ; FIG. 19. On the procedure: The protocol used above in Example 1 was followed for testing a combination of FBT10 and DBZ. The experiment consisted of performing surgery on 8-week-old mice to implant an enterojejujnal catheter to deliver drugs locally to the intestinal mucosa. After a 1-week recovery period, mice were treated with a single i.p. injection of DBZ or vehicle control. Administration of Foxo1 inhibitor compound 10 (FBT10) was initiated either on the same day or on the following day, t.i.d. by injection via enterojejunal catheter for 3 days. At the end of the experiment, mice were sacrificed and the intestine analyzed for enteroendocrine cell content using immunohistochemistry. Regarding the graphs indicating effects on Body weight and blood glucose, each line represents an individual animal. […] No insulin-positive cells were found in vehicle treated duodenum or colon.

In the next assay the test system is gut cells of NOD mice. Put plainly: FBT10 in NOD mice over 96 hr; gut micrographs. It is filed as in vivo, mouse. The following applies: 96 hr period, FIG. 20. On the procedure:
NOD mice (mouse model whose pancreatic beta cells are destroyed by immunological response) were treated with FBT10 or vehicle over a 96 hr period. […] Insulin-positive cells were not detected in the colon. FIG. 20 also provides graphs showing effects on body weight and blood glucose (each graph line represents an individual animal)

Assay [5] has as its system gut cells of Foxo1 knockout mice. Description: Oral gavage of ROCK inhibitor Y-27632 in Foxo1 knockout mice; intestine immunohistochemistry. It counts as in vivo, mouse. The following applies: for number of insulin-positive cells in Foxo1 knockout mice not treated with ROCKi relative to those treated: Y-27632 oral gavage q.d. 2 days, FIG. 17, dihydrochloride. The source says:
The experiment consisted of treating 8-week-old mice (Foxo1 knockout mice) by oral gavage dosing of Y-27632, q.d., for 2 days. On day 3, mice were sacrificed and the intestine analyzed for enteroendocrine cell content using immunohistochemistry. The arrows in FIGS. 15 and 16 represent c-peptide and insulin-positive cells, which resemble true beta-like cells.

A further assay deals with Gut Ins+ cells. Put plainly: Insulin secretion by Gut Ins+ cells, block by diazoxide.

Turning to `C[C@H](NC(=O)Cc1cc(F)cc(F)c1)C(=O)N[C@@H]1C(=O)N(C)c2ccccc2-c2ccccc21` [DBZ], the “ins+ cells after individual treatment” value in assay [1] is listed as “neither which produced ins+ cells”. Further, in assay [2], the “number of Serotonin (5HT)-positive cells” value is recorded as “increased” and the “number of Somatostatin-positive cells” value is on record as “increased”. For the same compound, the “number of Glp1-positive cells” value in assay [2] (duodenum and jejunum) is recorded as “increased”.
On to `COc1ccc(C(=O)Nc2cc(-c3nc4ccccc4[nH]3)n[nH]2)cc1Cl` [FBT9, N-(3-(1H-benzo[d]imidazole-2-yl)-1H-pyrazol-5-yl)-3-chloro-4-methoxybenzamide], for which the “ins+ cells after individual treatment” value in assay [1] is reported as “neither which produced ins+ cells”.
As to `CN1CCN(c2ccc(C(=O)Nc3cc(-c4nc5ccccc5[nH]4)n[nH]3)cc2)CC1` [FBT10, N-(3-(1H-benzo[d]imidazol-2-yl)-1H-pyrazol-5-yl)-4-(4-methylpiperazin-1-yl)benzamide], the “insulin and serotonin (5HT) positive cells” value in assay [3] is “some of the cells turned into insulin and serotonin (5HT) positive cells”. The “insulin-positive cells in duodenum and colon” value in assay [4] is “present in the duodenum and colon”. Also, in the assay with gut cells of NOD mice, the “insulin-positive cells in the colon” value is recorded as “not detected” and the “insulin-positive cells in the jejunum” value is “generated insulin-positive cells”.
As for `C[C@@H](N)[C@H]1CC[C@H](C(=O)Nc2ccncc2)CC1.Cl.Cl` [Y27632, (+)-(R)-trans-4-(1-aminoethyl)-N-(4-pyridyl)cyclohexanecarboxamide dihydrochloride], the “Epcam counterstain of insulin-positive cells” value in assay [5] (Foxo1 knockout mice treated with ROCKi, FIG. 16) is on record as “insulin-positive cells are epithelial”. Besides, the “number of insulin-positive cells in Foxo1 knockout mice not treated with ROCKi relative to those treated” value in assay [5] (listed as ROCK inhibitor) was “decreases dramatically”; in assay [5] (listed as ROCKi), “significantly lower”. In assay [5] (homozygous Foxo1 knockout mice, FIG. 15), the “C-peptide staining of Ins+ cells in the gut” value is on record as “positive for C-peptide”.
On to `CC1=NS(=O)(=O)c2cc(Cl)ccc2N1` [diazoxide], for which the “insulin secretion / release by Gut Ins+ cells” value in the assay with Gut Ins+ cells is recorded as “can be blocked; also recorded: can be shut off”.
